Laboratory results published in patent US20250092065A1, “2-(INDAZOL-5-YL)-6-(PIPERIDIN-4-YL)-1,7-NAPHTHYRIDINE DERIVATIVES AND RELATED COMPOUNDS AS MODULATORS FOR SPLICING NUCLEIC ACIDS AND FOR THE TREATMENT OF PROLIFERATIVE DISEASES” (REMIX THERAPEUTICS INC., priority 2022, published 2025).
Where two headings read alike, the source gives them in different places.

Key:
[1] = system: MYB; assay: HiBiT protein abundance assay, MYB (K562 HiBiT knock-in); assay type: cell-based, human; details: HiBiT knock-in K562 cells, 24 hours, top dose 10 μM
How it was run: (§1)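 K562 HiBiT knock-in, 24 h, 37 °C, top 10 μM final, 3-fold ×10, DMSO ≤0.25%. Lytic HiBiT luminescence; PC = parental K562, NC = DMSO; 4PL IC50.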

[2] = system: K562 cells; assay: Cell Titer Glo 2.0 cell viability (toxicity) assay, K562; details: 500 cells/well, 72 hours
[3] = system: HTT mRNA; assay: RT-qPCR splicing assay, HTT mRNA canonical (CJ) and alternative (AJ) junction; assay type: cell-based, human; details: Homo sapiens; for AC50: HTT alternative junction mRNA, read-out: HTT AJ (increase in AJ mRNA, AC50)
How it was run: (§2)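 A673 or K562 cells treated 24 h at 37 °C with an 11-point 3-fold dilution series (top 10 uM, DMSO ≤0.25%). Lysates went directly to one-step RT-qPCR quantifying canonical (CJ) and alternative-exon (AJ) junctions, normalized to GAPDH, GUSB or PPIA. Values from ΔΔCt versus DMSO, RQ = 2^(−ΔΔCt), expressed as percentage response.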

[4] = system: SMN2 mRNA; assay: RT-qPCR splicing assay, SMN2 mRNA; assay type: cell-based, human; details: Homo sapiens, canonical junction qPCR panel, Table 4; read-out: SMN2 IC50 (decrease in CJ mRNA levels)
How it was run: as §2

[5] = system: HTT; assay: HiBiT protein abundance assay, HTT (K562 HiBiT knock-in); assay type: cell-based, human; details: HiBiT knock-in K562 cells, 24 hours, top dose 10 μM
How it was run: as §1

[6] = system: Target C; assay: HiBiT protein abundance assay, Target C (K562 HiBiT knock-in); assay type: cell-based, human; details: HiBiT knock-in K562 cells, 24 hours, top dose 10 μM
How it was run: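 K562 HiBiT knock-in cells (10000/well) were treated 24 h at 37° C with a 10-point 3-fold dilution series (top 10 μM final, ≤0.25% DMSO). HiBiT luminescence was read after lytic LgBiT detection. Percent response used unmodified K562 and DMSO-treated knock-in controls, and IC50 came from a four-parameter fit at 50% of untreated.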

[7] = system: MYB mRNA; assay: RT-qPCR splicing assay, MYB mRNA canonical (CJ) and alternative (AJ) junction; assay type: cell-based, human; details: Homo sapiens; for AC50: MYB alternative junction mRNA, read-out: MYB AJ (increase in AJ mRNA, AC50)
How it was run: as §2

[8] = HTT canonical junction mRNA, RT-qPCR, read-out: HTT CJ (decrease in CJ mRNA levels, IC50)
[9] = canonical junction qPCR panel, Table 4, read-out: HTT IC50 (decrease in CJ mRNA levels)
[10] = MYB canonical junction mRNA, RT-qPCR, read-out: MYB CJ (decrease in CJ mRNA levels, IC50)
[11] = canonical junction qPCR panel, Table 4, read-out: MYB IC50 (decrease in CJ mRNA levels)

| SMILES | IC50 [1] | IC50 [3, 8] | IC50 [3, 9] | IC50 [4] | IC50 [5] | IC50 [6] | IC50 [7, 10] | IC50 [7, 11] | Effect of Exemplary Compounds on Cell Viability, K562 [2] | AC50 ([3]; RT-qPCR) | AC50 ([7]; RT-qPCR) |
| --- | --- | --- | --- | --- | --- | --- | --- | --- | --- | --- | --- |
| Cc1c(O)c(-c2ccc3nc(N4CC[C@H](NC5(C)CC5)C4)ccc3n2)cc2cn(C)nc12 [Compound 226] | < 100 nM | < 100 nM | < 100 nM | < 100 nM | < 100 nM | < 100 nM | < 100 nM | < 100 nM | B (B represents 100-1000 nM) | < 100 nM | 100 to 1000 nM |
| Cc1nc2cc(O)c(-c3ccc4nc(N5CCC(NC6CCC6)C5)ccc4n3)cc2o1 (centres unmarked) [Compound 228] | < 100 nM | < 100 nM | < 100 nM | < 100 nM | < 100 nM | 100 to 1000 nM | 100 to 1000 nM | 100 to 1000 nM | B (B represents 100-1000 nM) | < 100 nM | < 100 nM |
| Cc1nc2cc(O)c(-c3ccc4nc(N5CC[C@@H](NC(C)C)C5)ccc4n3)cc2o1 [Compound 232] | < 100 nM | < 100 nM | < 100 nM | < 100 nM | < 100 nM | < 100 nM | < 100 nM | < 100 nM | A (A represents <100 nM) | < 100 nM | < 100 nM |
| Cc1nc2cc(O)c(-c3ccc4nc(N5CC[C@H](NC(C)C)C5)ccc4n3)cc2o1 [Compound 233] | < 100 nM | < 100 nM | < 100 nM | < 100 nM | < 100 nM | < 100 nM | < 100 nM | < 100 nM | B (B represents 100-1000 nM) | < 100 nM | < 100 nM |
| Cc1nc2cc(O)c(-c3ccc4nc(N5CCC(N)C5)ccc4n3)cc2o1 (centres unmarked) [Compound 234] | < 100 nM | 100 to 1000 nM | 100 to 1000 nM | < 100 nM | < 100 nM | < 100 nM | 100 to 1000 nM | 100 to 1000 nM | A (A represents <100 nM) | < 100 nM | < 100 nM |
| Cn1cc2cc(-c3ccc4nc(N5CC[C@@H](NCC(F)(F)F)C5)ccc4n3)c(O)cc2n1 [Compound 245] | > 10000 nM | > 10000 nM | > 10000 nM | 1000 to 10000 nM | 1000 to 10000 nM | > 10000 nM | > 10000 nM | > 10000 nM | D (D represents greater than 10 μM in K562 cells) | > 10000 nM | > 10000 nM |
| Cn1cc2cc(-c3ccc4nc(N5CC[C@@H](N[C@H]6C[C@H](F)C6)C5)ccc4n3)c(O)cc2n1 [Compound 246] | < 100 nM | < 100 nM | < 100 nM | < 100 nM | < 100 nM | < 100 nM | < 100 nM | < 100 nM | B (B represents 100-1000 nM) | < 100 nM | < 100 nM |
| Cn1cc2cc(-c3ccc4nc(N5CC[C@H](N[C@H]6C[C@H](F)C6)C5)ccc4n3)c(O)cc2n1 [Compound 247] | 100 to 1000 nM | < 100 nM | < 100 nM | < 100 nM | 100 to 1000 nM | 100 to 1000 nM | < 100 nM | < 100 nM | B (B represents 100-1000 nM) | 100 to 1000 nM | < 100 nM |
| Cc1nc2c(F)c(O)c(-c3ccc4nc(N5CC[C@@H](NC6CC6)C5)ccc4n3)cc2o1 [Compound 253] | < 100 nM | < 100 nM | < 100 nM | < 100 nM | < 100 nM | < 100 nM | < 100 nM | < 100 nM | A (A represents <100 nM) | < 100 nM | < 100 nM |
| Cc1c(O)c(-c2ccc3nc(N4CC[C@@H](NC5CC5)C4)ccc3n2)cc2cn(C)nc12 [Compound 259] | < 100 nM | < 100 nM | < 100 nM | < 100 nM | < 100 nM | < 100 nM | < 100 nM | < 100 nM | B (B represents 100-1000 nM) | < 100 nM | < 100 nM |

More lines, main results first:

| IC50 [1] | IC50 [3, 8] | IC50 [3, 9] | IC50 [4] | IC50 [5] | IC50 [6] | IC50 [7, 10] | IC50 [7, 11] | SMILES | Effect of Exemplary Compounds on Cell Viability, K562 [2] | AC50 ([3]; RT-qPCR) | AC50 ([7]; RT-qPCR) |
| --- | --- | --- | --- | --- | --- | --- | --- | --- | --- | --- | --- |
| < 100 nM | < 100 nM | < 100 nM | < 100 nM | < 100 nM | < 100 nM | < 100 nM | < 100 nM | Cn1cc2cc(-c3ccc4nc(N5CC[C@H](NC6(C)CC6)C5)ccc4n3)c(O)c(F)c2n1 [Compound 222] | B (B represents 100-1000 nM) | < 100 nM | < 100 nM |
| < 100 nM | < 100 nM | < 100 nM | < 100 nM | < 100 nM | < 100 nM | < 100 nM | < 100 nM | Cn1cc2cc(-c3ccc4nc(N5CC[C@@H](NC6(C)CC6)C5)ccc4n3)c(O)c(F)c2n1 [Compound 223] | A (A represents <100 nM) | < 100 nM | < 100 nM |
| < 100 nM | < 100 nM | < 100 nM | < 100 nM | < 100 nM | < 100 nM | < 100 nM | < 100 nM | Cc1c(O)c(-c2ccc3nc(N4CCC(NC5(C)CC5)C4)ccc3n2)cc2cn(C)nc12 (centres unmarked) [Compound 224] | B (B represents 100-1000 nM) | < 100 nM | < 100 nM |
| < 100 nM | < 100 nM | < 100 nM | < 100 nM | < 100 nM | < 100 nM | < 100 nM | < 100 nM | Cc1c(O)c(-c2ccc3nc(N4CC[C@@H](NC5(C)CC5)C4)ccc3n2)cc2cn(C)nc12 [Compound 225] | B (B represents 100-1000 nM) | < 100 nM | < 100 nM |
| < 100 nM | < 100 nM | < 100 nM | < 100 nM | < 100 nM | < 100 nM | < 100 nM | < 100 nM | Cn1cc2cc(-c3ccc4nc(N5CCC(N)C5)ccc4n3)c(O)c(F)c2n1 (centres unmarked) [Compound 238] | A (A represents <100 nM) | < 100 nM | < 100 nM |
| < 100 nM | < 100 nM | < 100 nM | < 100 nM | < 100 nM | < 100 nM | < 100 nM | < 100 nM | Cc1nc2c(F)c(O)c(-c3ccc4nc(N5CC[C@H](NC6CC6)C5)ccc4n3)cc2o1 [Compound 254] | A (A represents <100 nM) | < 100 nM | < 100 nM |
| < 100 nM | < 100 nM | < 100 nM | < 100 nM | < 100 nM | < 100 nM | < 100 nM | < 100 nM | Cc1nc2c(F)c(O)c(-c3ccc4nc(N5CC[C@H](NC(C)(C)C)C5)ccc4n3)cc2o1 [Compound 255] | A (A represents <100 nM) | < 100 nM | < 100 nM |
| < 100 nM | < 100 nM | < 100 nM | < 100 nM | < 100 nM | < 100 nM | < 100 nM | < 100 nM | Cc1nc2cc(O)c(-c3ccc4nc(N5CC[C@H](NC6(C)CC6)C5)ccc4n3)cc2o1 [Compound 257] | B (B represents 100-1000 nM) | < 100 nM | < 100 nM |
| 100 to 1000 nM | < 100 nM | < 100 nM | < 100 nM | 100 to 1000 nM | 100 to 1000 nM | 100 to 1000 nM | 100 to 1000 nM | Cc1nc2cc(O)c(-c3ccc4nc(N5CC[C@@H](NC6(C)CC6)C5)ccc4n3)cc2o1 [Compound 258] | C (C represents 1000-9999 nM) | < 100 nM | 100 to 1000 nM |
